A short description of data set [1]: Fe-porphyrin catalyzed oxidation of DHTz. The conditions noted are these: DHTz 35 uM in PBS pH 7.4, air. As to the method: 4-Oxo-4-((6-(6-(pyridin-2-yl)-1,4-dihydro-1,2,4,5-tetrazin-3-yl)pyridin-3-yl)amino)butanoic acid (35 uM in PBS (pH 7.4), 2 mL) was placed in a 1 cm×1 cm cuvette with a strongly stirred magnetic stir bar in an atmosphere of air. A solution of Fe-TMPyP (50 uM in PBS (pH 7.4), 20 uL) was added to the cuvette. The reaction was monitored by a UV-Vis spectrometer at 280 nm and 325 nm.
4-Oxo-4-((6-(6-(pyridin-2-yl)-1,4-dihydro-1,2,4,5-tetrazin-3-yl)pyridin-3-yl)amino)butanoic acid (35 uM in PBS (pH 7.4), 2 mL) was placed in a 1 cm×1 cm cuvette with a strongly stirred magnetic stir bar in an atmosphere of air. A solution of Fe-TPPS (50 uM in PBS (pH 7.4), 20 uL) was added to the cuvette. The reaction was monitored by a UV-Vis spectrometer at 280 nm and 325 nm.

The nature of data set [2]: Electrochemical oxidation / cyclic voltammetry. The conditions noted are these: phosphate buffer pH 7.0, vs Ag/AgCl reference. Format: physicochemical. As to the method:
Compound 3a has a maximum in the UV-vis spectrum at 292 nm, and 4a has a maximum at 325 nm with a less intense peak at 525 nm (FIG. 2). […] This isosbestic point was also conserved in the photocatalytic and enzymatic (FIG. 2) oxidations of 3a described below, and the spectroscopic changes at 292 and 325 nm were routinely used for monitoring reaction progress.
All electrochemistry was performed using a CHI-620D potentiostat/galvanostat. Cyclic voltammetry was performed using a standard three-electrode configuration. CV scans were recorded for quiescent solutions using a platinum disk working electrode (2.0 mm diameter CH Instruments) and a platinum wire auxiliary electrode. All potentials were measured against a Ag/AgCl reference electrode (CH Instruments, 1 M KCl). CV and DPV experiments were performed in a nitrogen saturated 0.1 M potassium phosphate (KH2PO4) buffered solution at pH 7.0. The concentration of the analyte was 1.0 mM for all experiments.

Data set [3] concerns A19V D222G APEX2. The data set can be described thus: Oxidation of 15 by APEX2 variant A19V D222G APEX2. It counts as biochemical. As to conditions: 15 40 μM, enzyme 275 nM, PBS with EDTA. As to the method:
15 (40 μM) from methanol stock solutions was added to PBS containing […] EDTA. After 10s, APEX2 (275 nM) was dosed in and oxidation was monitored at 325 nm for 15. The procedure stated above was repeated for F41A APEX2 and A19V D222G APEX2. (FIG. 17).

Data set [4] concerns the target T1, APEX2 (SEQ ID NO:1) (Glycine max, UniProt Q43758, A134P/E112K/K14D/W41F).
T1 sequence (Q43758 1-250 A134P/E112K/K14D/W41F): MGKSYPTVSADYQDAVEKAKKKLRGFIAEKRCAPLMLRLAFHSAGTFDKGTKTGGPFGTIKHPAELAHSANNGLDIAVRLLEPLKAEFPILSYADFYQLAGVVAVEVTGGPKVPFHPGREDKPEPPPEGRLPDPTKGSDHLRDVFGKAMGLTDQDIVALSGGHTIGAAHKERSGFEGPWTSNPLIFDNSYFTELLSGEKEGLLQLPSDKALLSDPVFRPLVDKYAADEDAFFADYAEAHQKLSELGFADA
The data set is described as follows: Oxidation of DHT by APEX2, UV-Vis initial rates and kinetic parameters. As to conditions: for Initial rate of oxidation of DHT by APEX2 (SEQ ID NO: 1) / Initial rate of oxidation of DHT by APEX2 (SEQ ID NO: 1) + SOD: PBS, 100 μM EDTA, first 100 s; for Initial rate of oxidation of DHT by APEX2 (SEQ ID NO: 1) + SOD: SOD 1 μM. Format: biochemical. As to the method: UV-Vis and fluorescence measurements were conducted in quartz cuvettes. All reactions were conducted in phosphate buffered saline (PBS) containing 100 μM EDTA with a pH=7.4. The PBS was prepared by adding 25 mM phosphate salts (Na2HPO4 and NaH2PO4), 100 mM NaCl, 100 μM EDTA to DI water. EDTA was added to quench free metals that can oxidize DHT. The buffer was pH adjusted to 7.4 using 1 mM HCl and 1 mM NaOH. UV experiments were stirred at 25° C. in a temperature-controlled cuvette holder of the spectrophotometer. Solutions of 15 or 16 were prepared from methanol stock solutions.
15 or 16 (60 μM) from methanol stock solutions was added to PBS containing 100 μM EDTA. After 10s, APEX2 (SEQ ID NO:1) (275 nM) was dosed in and oxidation was monitored at 325 nm for 15 and 285 nm for 16 at 60s intervals (FIG. 10B-C).
16 (15 μM) DHT from methanol stock solutions was added to PBS containing 100 μM EDTA. After 10s, APEX2 (SEQ ID NO:1) (275 nM) or HRP (15 nM) was dosed in and oxidation was monitored at 285 nm at 10s intervals (FIG. 10D)
SOD (1 μM) was added to PBS containing 100 μM EDTA. 15 or 16 (60 μM) was added from methanol stock solutions. After 10s, APEX2 (SEQ ID NO:1) or F41A APEX2 (275 nM) was dosed in and oxidation was monitored at 325 nm for 15 and 285 nm for 16 at 60s intervals.
The initial rate of oxidation was calculated from the first 100 seconds after APEX2 (SEQ ID NO:1) or F41A APEX2 was added ([…]). In the assays where SOD was added, SOD (1 μM) was added to PBS containing 100 μM EDTA and 15 or 16 was dosed in. 10 seconds later, APEX2 (SEQ ID NO:1) or F41A APEX2 ([…]) was added and the rate of oxidation was calculated from the first 100 seconds after APEX2 (SEQ ID NO:1) or F41A APEX2 ([…]) addition. The initial rate of oxidation was adjusted to background oxidation of DHT in PBS with 100 μM EDTA. Kinetic parameters (Table 2) were determined using GraphPad's Prism 6 software from the data presented below (Table 3-4).

For `O=C(O)CCC(=O)Nc1ccc(C2=NNC(c3ccccn3)=NN2)nc1` [3a, 4-oxo-4-((6-(6-(pyridin-2-yl)-1,4-dihydro-1,2,4,5-tetrazin-3-yl)pyridin-3-yl)amino)butanoic Acid], in data set [1] (Fe-TMPyP), the “time to 50% completion of oxidation” value was not above 1 min and the “time to 95% completion of oxidation” value is not above 5 min. Further, the “time to 50% completion of oxidation” value in data set [1] (Fe-TPPS) is not above 5 min. For the same compound, in data set [2], the “voltammogram peak (electrochemical oxidation)” value is recorded as 0.02 V.

Turning to `O=C(O)CCCC(=O)Nc1ccc(C2=NNC(c3ccccn3)=NN2)nc1` [compound 15], the “oxidation by A19V D222G APEX2 (tetrazine formation at 325 nm)” value in data set [3] is listed as “can oxidize 15”. Besides, the “rate of catalysis by APEX2 slower than by HRP” value in data set [4] (APEX2 versus HRP (FIG. 10D)) is on record as “approximately 100 ×”. Further, the “Initial rate of oxidation of DHT by APEX2 (SEQ ID NO: 1)” value in data set [4] (DHT 5 μM) is given as 0.903 +/− 0.026 ×10^−8 M/s; in data set [4] (DHT 10 μM), 1.286 +/− 0.141 ×10^−8 M/s; in data set [4] (DHT 15 μM), 1.442 +/− 0.298 ×10^−8 M/s; in data set [4] (DHT 20 μM) it was 1.872 +/− 0.028 ×10^−8 M/s; in data set [4] (DHT 25 μM), 1.628 +/− 0.133 ×10^−8 M/s; in data set [4] (DHT 30 μM) it was 1.878 +/− 0.055 ×10^−8 M/s. Further, the “Initial rate of oxidation of DHT by APEX2 (SEQ ID NO: 1)” value in data set [4] (DHT 40 μM) is 2.305 +/− 0.101 ×10^−8 M/s; in data set [4] (DHT 50 μM), 2.445 +/− 0.303 ×10^−8 M/s; in data set [4] (DHT 60 μM), 2.603 +/− 0.306 ×10^−8 M/s; in data set [4] (DHT 70 μM), 3.197 +/− 0.025 ×10^−8 M/s; in data set [4] (DHT 75 μM), 3.460 +/− 0.492 ×10^−8 M/s; in data set [4] (DHT 85 μM) it was 3.978 +/− 0.119 ×10^−8 M/s. Further, the “Initial rate of oxidation of DHT by APEX2 (SEQ ID NO: 1) + SOD” value in data set [4] (DHT 6 μM) is 1.104 +/− 0.028 ×10^−8 M/s; in data set [4] (DHT 12 μM), 1.831 +/− 0.169 ×10^−8 M/s; in data set [4] (DHT 15 μM), 1.765 +/− 0.172 ×10^−8 M/s; in data set [4] (DHT 20 μM) it was 2.166 +/− 0.201 ×10^−8 M/s; in data set [4] (DHT 25 μM) it was 2.937 +/− 0.487 ×10^−8 M/s; in data set [4] (DHT 30 μM), 2.418 +/− 0.038 ×10^−8 M/s. The “Initial rate of oxidation of DHT by APEX2 (SEQ ID NO: 1) + SOD” value is reported as 3.230 +/− 0.348 ×10^−8 M/s in data set [4] (DHT 40 μM); 3.305 +/− 0.436 ×10^−8 M/s in data set [4] (DHT 50 μM); 4.169 +/− 0.242 ×10^−8 M/s in data set [4] (DHT 60 μM); 4.196 +/− 0.444 ×10^−8 M/s in data set [4] (DHT 75 μM); 4.939 +/− 0.202 ×10^−8 M/s in data set [4] (DHT 85 μM).

The record behind these values is patent publication US11485987B2, “Methods for inducing bioorthogonal reactivity” (University of Delaware, priority 2015, dated 2022).
